These results are taken from ChEMBL document CHEMBL1126894 (J Med Chem, 1993).

Assay [1] deals with T1, 5-hydroxytryptamine receptor 1A (Rattus norvegicus, UniProt P19327).
T1 sequence (P19327 whole entry): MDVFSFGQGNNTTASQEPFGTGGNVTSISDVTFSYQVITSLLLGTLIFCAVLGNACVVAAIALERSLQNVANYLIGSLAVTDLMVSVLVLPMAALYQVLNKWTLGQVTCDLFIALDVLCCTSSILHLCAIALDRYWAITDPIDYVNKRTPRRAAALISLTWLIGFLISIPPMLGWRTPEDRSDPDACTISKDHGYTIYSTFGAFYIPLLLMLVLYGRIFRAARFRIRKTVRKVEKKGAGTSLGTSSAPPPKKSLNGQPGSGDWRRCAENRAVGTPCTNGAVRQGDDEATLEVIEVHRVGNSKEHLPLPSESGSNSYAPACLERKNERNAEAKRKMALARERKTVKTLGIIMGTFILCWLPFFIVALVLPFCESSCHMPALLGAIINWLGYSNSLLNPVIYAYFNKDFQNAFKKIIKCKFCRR
Put plainly: Binding affinity by measuring displacement of [3H]-8-OH-DPAT from 5-hydroxytryptamine 1A receptor in rat hippocampus. It is filed as tissue-based.

The subject of assay [2] is Mus musculus. Description: Ability to reverse scopolamine-induced amnesia in a passive avoidance test to assess memory impairment administered perorally 1 mg/kg (no. of mice). It is filed as functional. Conditions: route oral.
The test system of assay [3] is Rattus norvegicus. Description: Anticonflict activity on water lick conflict test in rats by measuring no. of shocks in 5 min. administered perorally at 3 mg/kg. In kind it is functional. Conditions: route oral.
Assay [4] has as its system Rattus norvegicus. Put plainly: Anticonflict activity on water lick conflict test in rats is no of shocks in 5 min. administered perorally 1 mg/kg (no. of rats). It is filed as functional. As to conditions: route oral.
For assay [5], the system named is Rattus norvegicus. Description: Anticonflict activity on water lick conflict test in rats by measuring no. of shocks in 5 min. administered perorally at 30 mg/kg. It is filed as functional. Conditions: route oral.
Assay [6] concerns Mus musculus. Description: Ability to reverse scopolamine-induced amnesia in a passive avoidance test to assess memory impairment administered perorally 30 mg/kg. In kind it is functional. As to conditions: route oral.
For assay [7], the system named is Mus musculus. Description: Ability to reverse scopolamine-induced amnesia in a passive avoidance test to assess memory impairment administered perorally 3 mg/kg. Conditions: route oral. In kind it is functional.
For assay [8], the system named is Mus musculus. Put plainly: Ability to reverse scopolamine-induced amnesia in a passive avoidance test to assess memory impairment administered perorally 10 mg/kg. In kind it is functional. Conditions: route oral.
The target in assay [9] is T1, 5-hydroxytryptamine receptor 1A. Put plainly: Inhibitory concentration against 5-hydroxytryptamine 1A receptor.
The test system of assay [10] is Rattus norvegicus. Description: Anticonflict activity on water lick conflict test in rats is no. of shocks in 5 min; administered perorally 10 mg/kg (no. of rats). It is filed as functional. Conditions: route oral.
Assay [11] concerns Mus musculus. Put plainly: Ability to reverse scopolamine-induced amnesia in a passive avoidance test to assess memory impairment; administered perorally 5 mg/kg (no. of mice). As to conditions: route oral. In kind it is functional.
Assay [12] deals with Mus musculus. Put plainly: Ability to reverse scopolamine-induced amnesia in a passive avoidance test to assess memory impairment administered perorally at 30 mg/kg. In kind it is functional. Conditions: route oral.
The test system of assay [13] is Rattus norvegicus. Put plainly: Anticonflict activity on water lick conflict test in rats by measuring no. of shocks in 5 min. administered perorally at 10 mg/kg. It is filed as functional. Conditions: route oral.
Assay [14] concerns Mus musculus. Put plainly: Ability to reverse scopolamine-induced amnesia in a passive avoidance test to assess memory impairment administered perorally 1 mg/kg. It is filed as functional. As to conditions: route oral.
Assay [15] addresses T1, 5-hydroxytryptamine receptor 1A. Put plainly: Binding affinity for 5-hydroxytryptamine 1A receptor by use of [3H]8-OH-DPAT in male rat.
Assay [16] concerns Rattus norvegicus. Put plainly: Anticonflict activity on water lick conflict test in rats by measuring no. of shocks in 5 min. administered perorally at 1 mg/kg. It is filed as functional. As to conditions: route oral.
Assay [17] deals with D(2) dopamine receptor (Homo sapiens, UniProt P14416). Put plainly: Binding affinity for DA2 receptor.

Counter-ions that a name gives are not always drawn.

Chain of D(2) dopamine receptor (P14416 whole entry): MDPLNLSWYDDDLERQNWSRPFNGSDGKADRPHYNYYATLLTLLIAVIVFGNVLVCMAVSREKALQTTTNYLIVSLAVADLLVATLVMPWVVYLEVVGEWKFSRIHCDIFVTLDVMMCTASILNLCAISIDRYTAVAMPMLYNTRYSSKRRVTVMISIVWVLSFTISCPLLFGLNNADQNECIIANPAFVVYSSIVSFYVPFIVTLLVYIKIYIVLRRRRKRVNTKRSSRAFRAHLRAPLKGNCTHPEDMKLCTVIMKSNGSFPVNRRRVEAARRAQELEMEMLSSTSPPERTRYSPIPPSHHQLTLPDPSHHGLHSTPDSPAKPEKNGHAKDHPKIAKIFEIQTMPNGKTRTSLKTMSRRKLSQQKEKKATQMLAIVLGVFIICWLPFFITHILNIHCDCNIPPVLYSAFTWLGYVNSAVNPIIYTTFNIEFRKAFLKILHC

By IC50 is commonly meant the concentration needed to halve the response being measured. In turn, `Cc1ccc(CNC(=O)[C@H]2Cc3c(sc4ccccc34)CN2)cc1` registered a concentration for half-maximal inhibition (IC50) in [1] of 133 nM.

With `CN1[C@@H]2C[C@@H](OC(=O)[C@H](CO)c3ccccc3)C[C@H]1[C@@H]1O[C@@H]12` [SCOPOLAMINE], in [2], the “Latency to step through” value worked out at 16 s.

`Cl.O=C(NC1CCCCC1O)[C@H]1Cc2c(sc3ccccc23)CN1` (stereo partly drawn): the No. of shocks in [3] was determined as 34.9; in [4], 21.6; in [5], 26.1. Moreover, the “Latency to step through” value in assay [6] is 50.8 s; in assay [7] it was 68.2 s; in assay [8], 41.6 s. The same compound registered a half-inhibitory concentration (IC50) in [1] of 148 nM.

Consider `O=C(NC1CCCCC1)[C@@H]1Cc2c(sc3ccccc23)CN1`, for which the IC50 in [1] is > 5000 nM.

Regarding `O=C(NC1CCCCCC1)[C@H]1Cc2c(sc3ccccc23)CN1`, the half-maximal inhibitory concentration (IC50) in assay [1] was 28.4 nM.

`O=C(NC1CCCCC1)[C@H]1Cc2c(sc3ccccc23)CN1` showed an IC50 in assay [1] of 27.2 nM.

As to `O=C(NN1CCCCC1)[C@H]1Cc2c(sc3ccccc23)CN1`, the IC50 in assay [1] came out at 211 nM.

The compound `O=C(OC1CCCCCC1)[C@H]1Cc2c(sc3ccccc23)CN1` gave a half-maximal inhibitory concentration (IC50) in assay [1] of 55.2 nM.

Turning to `CCCCCCCNC(=O)[C@H]1Cc2c(sc3ccccc23)CN1`, the midpoint of inhibition in [9], the IC50, lay at 126 nM.

In turn, `CN1C(=O)CN=C(c2ccccc2)c2cc(Cl)ccc21` [DIAZEPAM] showed a No. of shocks in [10] of 25.6. Also, the “Latency to step through” value in assay [11] was determined as 10.6 s.

`CC1CCC(NC(=O)[C@H]2Cc3c(sc4ccccc34)CN2)CC1` (stereo partly drawn) registered an IC50 in assay [1] of 32.4 nM.

One may read the Ki as a dissociation constant, usually derived from enzyme kinetics or from competition with a known ligand. High values mean weaker binding, low ones tighter binding. `Cl.O=C(NCc1ccc2c(c1)OCO2)[C@H]1Cc2c(sc3ccccc23)CN1`: the No. of shocks was 22.9 in assay [3], 28.3 in assay [13] and 22.1 in assay [16]. For the same compound, the “Latency to step through” value in assay [12] was 104.7 s; in assay [14], 94.6 s; in assay [7], 89 s. Besides, in [1], the IC50 came to 53.1 nM. Moreover, affinity in assay [15] was put at a Ki of 53.1 nM.

As to `O=C(Nc1ccccc1)[C@H]1Cc2c(sc3ccccc23)CN1`, in assay [1], the IC50 stood at 272 nM.

Regarding `O=C(NC1CCCC1)[C@H]1Cc2c(sc3ccccc23)CN1`, the IC50 in assay [1] was 111 nM.

In turn, `CC1CCCCC1NC(=O)[C@H]1Cc2c(sc3ccccc23)CN1` (stereo partly drawn) gave a half-maximal inhibitory concentration (IC50) in assay [1] of 28 nM.

Compound `O=C(NCC1CCCCC1)[C@H]1Cc2c(sc3ccccc23)CN1` came in with a 50% inhibitory concentration (IC50) in assay [1] of 20.2 nM.

With `O=C(OC1CCCCC1)[C@H]1Cc2c(sc3ccccc23)CN1`, in assay [1], the half-inhibitory concentration (IC50) turned out to be 50.4 nM.

Regarding `O=C(NCc1ccc2c(c1)OCO2)C1Cc2c(sc3ccccc23)CN1` (single isomer, unassigned), the IC50 in assay [1] was > 5000 nM.

`O=C(OC1CCCC1)[C@H]1Cc2c(sc3ccccc23)CN1`: the IC50 in assay [1] stood at 121 nM.

In turn, `CC(C)(C)C1CCC(NC(=O)[C@H]2Cc3c(sc4ccccc34)CN2)CC1` (stereo partly drawn) showed a 50% inhibitory concentration (IC50) in assay [1] of 52.7 nM.

Take `CCCCCCNC(=O)[C@H]1Cc2c(sc3ccccc23)CN1`: the half-inhibitory concentration (IC50) in assay [1] came to 91.2 nM.

Regarding `O=C(NC12CC3CC(CC(C3)C1)C2)[C@H]1Cc2c(sc3ccccc23)CN1`, in assay [1], the concentration for half-maximal inhibition (IC50) worked out at 61.6 nM.

`O=C(NC1CCC1)[C@H]1Cc2c(sc3ccccc23)CN1` showed a 50% inhibitory concentration (IC50) in [1] of 232 nM.

In the case of `O=C(NC1CC2CCC1C2)[C@H]1Cc2c(sc3ccccc23)CN1` (stereo partly drawn), the IC50 in [1] is 66.4 nM.

With `CCC(CC)NC(=O)[C@H]1Cc2c(sc3ccccc23)CN1`, the half-maximal inhibitory concentration (IC50) in assay [1] is 126 nM.

As for `O=C1[C@@H]2[C@H]3CC[C@H](C3)[C@@H]2C(=O)N1CCCCN1CCN(c2ncccn2)CC1` [TANDOSPIRONE HYDROCHLORIDE], the affinity in assay [17] corresponds to a Ki of 28 nM.

Consider `O=C(NC1CCCCCCC1)[C@H]1Cc2c(sc3ccccc23)CN1`, for which the IC50 in assay [1] came to 22.9 nM.

In [1], `C[C@H](NC(=O)[C@H]1Cc2c(sc3ccccc23)CN1)c1ccccc1` had an IC50 of 58.4 nM.

`O=C(OC1CCCCCCC1)[C@H]1Cc2c(sc3ccccc23)CN1` displayed a 50% inhibitory concentration (IC50) in [1] of 67.3 nM.
